Like-named read-outs stand apart in the source and are kept apart here.
Legend:
Format in all cases: biochemical
[1] = target: T1, D-aminoacylase (Alcaligenes faecalis, UniProt Q9AGH8); assay: Influence of metallic ions on D-aminoacylase activities; conditions: 1 mM metallic ion, 50 mM Tris-HCl pH 7.8, 30 minutes at 37° C., ninhydrin method
T1 sequence (Q9AGH8 1-484): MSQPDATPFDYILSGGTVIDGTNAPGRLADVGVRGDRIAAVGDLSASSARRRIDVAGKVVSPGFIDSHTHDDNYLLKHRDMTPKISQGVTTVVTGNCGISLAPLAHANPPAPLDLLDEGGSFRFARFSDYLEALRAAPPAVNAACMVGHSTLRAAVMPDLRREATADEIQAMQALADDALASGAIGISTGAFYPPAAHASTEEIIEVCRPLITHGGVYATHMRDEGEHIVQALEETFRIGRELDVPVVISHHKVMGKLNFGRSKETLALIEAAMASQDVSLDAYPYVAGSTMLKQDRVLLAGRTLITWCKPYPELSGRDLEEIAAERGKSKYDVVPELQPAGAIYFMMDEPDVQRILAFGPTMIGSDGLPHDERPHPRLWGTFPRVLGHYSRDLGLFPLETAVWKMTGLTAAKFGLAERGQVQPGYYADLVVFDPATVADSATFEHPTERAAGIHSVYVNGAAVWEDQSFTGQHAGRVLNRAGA

[2] = target: T1, D-aminoacylase; assay: Substrate specificity of D-aminoacylase (hydrolysis of N-acyl amino acids, ninhydrin method); conditions: for Relative Activity D-form: D-form of the substrate, N-acetyl-D-methionine = 100; for Relative Activity L-form: L-form of the substrate, relative to N-acetyl-D-methionine = 100
Description: The activity of D-aminoacylase obtained by the method of this invention may be measured in accordance with Rosen method by using suitable amount of enzyme to decompose N-acetyl-D-methionine, of which the produced D-methionine may be quantitatively measured by D-amino acid oxidase or by ninhydrin method. [Note: H. Rosen, A modified ninhydrin colorimetric analysis for amino acids. Arch. Biochem. Biophys. 67:10-15 (1957)].
The activity unit of enzyme of this invention is defined herewith as the enzyme quantity required for decomposing 10 mM N-acetyl-D-methionine solution for releasing 1μ mole D-methionine per minute at 37° C.
The D-aminoacylase of this invention (hereinafter simply designated as "the acylase") may hydrolyze N-acyl-D-amino acids, but only slightly hydrolyze the N-acyl-L-amino acids.

[3] = target: T1, D-aminoacylase; assay: Reagents (inhibitors) influencing the D-aminoacylase activities
[4] = 1 mM inhibitor, 50 mM Tris-HCl pH 7.8, 30 minutes at 37° C., ninhydrin method, read-out: Residual activities %

SMILES | Residual activities % [1] [%] | Relative Activity D-form [2] | Relative Activity L-form [2] | other results
[Cl][Mn][Cl] [MnCl2] | 70 |  |  | 
CC(=O)N[C@@H](Cc1c[nH]c2ccccc12)C(=O)O [N-acetyl-tryptophan] |  | 14 | 0 | 
[Cl][Ni][Cl] [NiCl2] | 89 |  |  | 
[Cl][Cd][Cl] [CdCl2] | 0 |  |  | 
NC(=O)CI [iodoacetamide] |  |  |  | remaining activity at 1000 µM [3, 4]: 97%
[Cl][Cu][Cl] [CuCl2] | 15 |  |  | 
CC(=O)N[C@@H](CC(N)=O)C(=O)O [N-acetyl-asparagine] |  | 8 | 0 | 
CC(=O)N[C@@H](Cc1ccccc1)C(=O)O [N-acetyl-phenylalanine] |  | 80 | 0.8 | 
[Cl-].[Cl-].[Mg+2] [MgCl2] | 95 |  |  | 
O=C(O)c1cc[c]([Hg][Cl])cc1 [p-chloromercuibenzoic acid] |  |  |  | Residual activities % ([3]; 1 mM inhibitor, 50 mM Tris-HCl pH 7.8, 30 minutes at 37° C., ninhydrin method): 0%; Inhibition of the enzyme by reagent (in words) ([3]; 1 mM, 37° C., 30 minutes): inhibited
[Cl-].[Cl-].[Zn+2] [Zncl2] | 0 |  |  | 
[Cl-].[Cl-].[Sr+2] [SrCl2] | 87 |  |  | 
CCN1C(=O)C=CC1=O [N-ethylmaleimide] |  |  |  | remaining activity at 1000 µM [3, 4]: 36%; Inhibition of the enzyme by reagent (in words) ([3]; 1 mM, 37° C., 30 minutes): inhibited
CC(C)[C@H](NC(=O)CCl)C(=O)O [N-chloroacetyl-valine] |  | 42 | 0.6 | 
[Ba+2].[Cl-].[Cl-] [BaCl2] | 99 |  |  | 
CSCC[C@@H](NC(C)=O)C(=O)O [N-acetyl-D-methionine] |  |  |  | Hydrolysis by the acylase (in words) [2]: strongest
CC(=O)N[C@H](C(=O)O)C(C)C [N-acetyl-valine] |  | 6 | 0 | 
[Cl][Hg][Cl] [HgCl2] | 0 |  |  | 
CC(=O)N[C@@H](C)C(=O)O [N-acetyl-alanine] |  | 14 | 0.7 | 
O=CC(=O)c1ccccc1 [phenylglyoxal] |  |  |  | remaining activity at 1000 µM [3, 4]: 65%; Inhibition of the enzyme by reagent (in words) ([3]; 1 mM, 37° C., 30 minutes): inhibited
O=C(O)CN(CCN(CC(=O)O)CC(=O)O)CC(=O)O [EDTA] |  |  |  | Inhibition of the enzyme by reagent (in words) [3]: inhibited; remaining activity at 1000 µM ([3]; pH 7.8, read-out: Residual activities %): 22%
CSCC[C@H](NC(C)=O)C(=O)O [N-acetyl-methionine] |  | 100 | 0.8 | 
CC(=O)NC(CC(C)C)C(=O)O (stereo not shown) [N-acetyl-leuoine] |  | 40 | 0.4 | 
CC(=O)NC(C(=O)O)c1ccccc1 (stereo not shown) [N-acetyl-phenylglycine] |  | 3 | 0 | 
[Cl-].[Cl-].[Co+2] [CoCl2] | 96 |  |  | 
[Ca+2].[Cl-].[Cl-] [CaCl2] | 99 |  |  | 
[Cl][Fe][Cl] [FeCl2] | 60 |  |  | 

From patent publication US5206162A, “Process for making D-aminoacylase” (National Science Council of Republic of China, priority 1991, dated 1993)
